From patent US20100189701A1, “METHODS AND COMPOSITIONS TO TREAT ARRHYTHMIAS” (priority 2007, published 2010)

Legend:
[1] = Sodium channel steady state inactivation (literature values); details: depolarization to −65 mV
Text: Since slow conduction is an essential feature of reentrant cardiac arrhythmias, it seems worth considering other mammalian sodium channels that might have more favorable properties than the cardiac Na channel in circumstances that favor slow conduction. One such circumstance is membrane depolarization and so the voltage dependence of steady state inactivation is of interest. Cohen Table I provides a comparison of the midpoints for steady state inactivation and slope factor for the cardiac and skeletal muscle sodium channels and a specific mutant of the skeletal muscle channel (G1306E). […] Thus, if cardiac muscle is depolarized to −65 mV, virtually all cardiac sodium channels would be inactivated, while a similar depolarization would leave almost half of normal skeletal muscle sodium channels available. This observation thus relates to a method of the present invention that the use of alternative sodium channels with more favorable biophysical properties serve as a useful antiarrhythmic therapy.
Besides existing sodium channels, much has been learned from structure-function studies in which specific amino acids have been mutated. An extensive study of the S4 domain of the skeletal muscle sodium channel was conducted by Haywood et al. (1996), J. Gen. Physiol. 107, 559-576 in an attempt to understand the origins of enhanced excitability in inherited human myotonia. […]

[2] = cited from earlier work
native SCN5A channel = native SCN5A channel (Homo sapiens, UniProt Q14524); details: cited from earlier work
Sequence of native SCN5A channel (Q14524 whole entry): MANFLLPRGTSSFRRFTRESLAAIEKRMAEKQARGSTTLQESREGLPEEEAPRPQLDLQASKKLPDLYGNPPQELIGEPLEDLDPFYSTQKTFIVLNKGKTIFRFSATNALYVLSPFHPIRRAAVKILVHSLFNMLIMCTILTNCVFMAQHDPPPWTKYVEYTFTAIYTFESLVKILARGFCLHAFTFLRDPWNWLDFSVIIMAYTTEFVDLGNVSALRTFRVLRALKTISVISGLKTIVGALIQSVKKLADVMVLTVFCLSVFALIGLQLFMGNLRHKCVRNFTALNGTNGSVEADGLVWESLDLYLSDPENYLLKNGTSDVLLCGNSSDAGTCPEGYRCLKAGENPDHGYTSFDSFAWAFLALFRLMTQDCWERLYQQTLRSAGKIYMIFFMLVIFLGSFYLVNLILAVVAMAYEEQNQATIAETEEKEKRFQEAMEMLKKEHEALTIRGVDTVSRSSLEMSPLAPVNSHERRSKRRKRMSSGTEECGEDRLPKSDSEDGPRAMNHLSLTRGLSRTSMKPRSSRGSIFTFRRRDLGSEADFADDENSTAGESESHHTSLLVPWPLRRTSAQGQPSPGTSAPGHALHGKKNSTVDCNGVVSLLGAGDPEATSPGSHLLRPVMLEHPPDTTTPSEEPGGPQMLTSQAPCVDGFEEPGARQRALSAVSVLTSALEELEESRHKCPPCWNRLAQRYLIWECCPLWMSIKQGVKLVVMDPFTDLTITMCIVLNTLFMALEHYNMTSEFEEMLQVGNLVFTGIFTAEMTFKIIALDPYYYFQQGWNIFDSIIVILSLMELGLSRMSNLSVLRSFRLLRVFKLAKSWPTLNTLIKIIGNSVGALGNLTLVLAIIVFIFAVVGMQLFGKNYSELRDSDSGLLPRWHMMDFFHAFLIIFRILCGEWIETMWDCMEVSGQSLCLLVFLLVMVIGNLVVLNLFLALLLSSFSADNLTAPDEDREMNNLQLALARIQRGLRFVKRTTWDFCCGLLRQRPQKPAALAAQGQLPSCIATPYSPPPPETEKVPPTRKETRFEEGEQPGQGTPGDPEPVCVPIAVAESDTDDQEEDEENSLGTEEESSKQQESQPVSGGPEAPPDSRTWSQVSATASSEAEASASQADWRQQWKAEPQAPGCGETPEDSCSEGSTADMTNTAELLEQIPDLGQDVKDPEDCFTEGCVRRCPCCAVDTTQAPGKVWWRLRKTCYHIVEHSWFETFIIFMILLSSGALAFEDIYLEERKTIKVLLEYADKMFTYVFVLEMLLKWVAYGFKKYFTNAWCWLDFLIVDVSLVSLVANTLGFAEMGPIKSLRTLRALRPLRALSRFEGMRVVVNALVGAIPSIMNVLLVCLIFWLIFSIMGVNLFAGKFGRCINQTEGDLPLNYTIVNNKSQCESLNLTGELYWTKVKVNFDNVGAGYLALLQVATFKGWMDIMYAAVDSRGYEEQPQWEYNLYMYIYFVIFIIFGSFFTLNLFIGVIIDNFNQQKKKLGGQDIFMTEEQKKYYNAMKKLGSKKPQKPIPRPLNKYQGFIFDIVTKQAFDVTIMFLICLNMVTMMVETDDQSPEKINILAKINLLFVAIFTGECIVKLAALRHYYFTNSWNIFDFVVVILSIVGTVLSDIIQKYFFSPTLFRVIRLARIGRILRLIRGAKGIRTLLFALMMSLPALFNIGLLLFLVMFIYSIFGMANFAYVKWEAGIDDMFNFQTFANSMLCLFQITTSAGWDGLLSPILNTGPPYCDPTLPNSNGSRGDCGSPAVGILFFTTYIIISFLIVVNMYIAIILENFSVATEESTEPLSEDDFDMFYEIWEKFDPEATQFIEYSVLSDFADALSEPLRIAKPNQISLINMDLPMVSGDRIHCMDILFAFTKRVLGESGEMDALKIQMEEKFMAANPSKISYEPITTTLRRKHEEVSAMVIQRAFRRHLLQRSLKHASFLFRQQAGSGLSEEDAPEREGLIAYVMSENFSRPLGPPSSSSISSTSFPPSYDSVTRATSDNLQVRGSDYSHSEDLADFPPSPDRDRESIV

HCN2 induced current = experiment: Autonomic agonists on HCN2 induced current in hMSCs; type: cell-based
MMP-7 = details: clinically relevant dosages; cited from earlier work
Cx43, 40, 45 = experiment: Example 4: chemical chaperone treatment of hMSC/myocyte co-culture, connexin expression and coupling; type: cell-based; details: initial results
Description: hMSCs and myocytes in co-culture are treated with a chemical chaperone (4 PB, 4-Phenylbutric acid, FDA approved) or zp123 (Rotigaptide) a synthetic antiarrhythmia peptide, that increases Cx43 mediated coupling. Western blot analysis and RT-PCR will be used to test protein abundance and expression for Cx43, 40, 45. Dual whole cell patch clamp will be used to determine the time course of junctional coupling. Western blot analysis and RT-PCR to test for protein abundance and expression for Cx43, 40, 45. The effects of 4PB and zp123 on hMSCs alone and myocytes alone will be assesed. Co-culturing of hMSCS and myocytes (atrial or ventricular) will also be done and a vital dye (Valiunas et al., 2005) will be used on hMSCs so that after defined time intervals of co-culture fluorescence activated cell sorting can be used to isolate the cell types and Western blot analysis and RT-PCR can be performed to assess abundance and expression respectively. A peptidase, such as dipeptidyl-peptidase or equivalent, will be used to cleave any zp123 that is secreted into the extracellular space. Dual whole cell patch clamp will be used to determine the time course of junctional coupling over a 96 hour interval at 24, 48 and 96 hours respectively. […] This should translate into enhanced coupling in the form of increased junctional conductance relative to controls.

Cx43 [3] = experiment: Western blot of HeLa cells expressing Cx43 exposed to 4PB; type: cell-based; details: HeLa cells transfected with Cx43, increasing doses
Text: FIG. 34 illustrates a Western blot where HeLa cells expressing Cx43 have been exposed to increasing doses of 4PB.
4PB is an FDA approved drug that can be administered orally, which is being tested for effectiveness in spinal muscular atrophy (Wirth et al., 2006; Brahe et al., 2005), and cystic fibrosis (Singh et al., 2006). […] In addition, stress in the form of mildly elevated temperatures up-regulates connexin expression and increases the total number of functional channels (VanSlyke and Musil, 2005). The chemical chaperone (4PB), a known inhibitor of histone deacetylase, an enzyme associated with inactivation of gene transcription, increases Cx43 production at concentrations in the mM range and exposure times of hours. Not only is Cx43 production elevated 2-5 fold but enhanced dye transfer is observed (Asklund et al., 2004). […] The present inventors have determined that the time course of coupling between hMSCs or model cells with myocytes reaches 50% of maximum within 48 hours.

Cx43 [4] = details: mM range, exposure times of hours; cited from earlier work
hMSCs = experiment: Patch clamp of If in hMSCs transfected with mHCN2; type: cell-based, human
Text: FIG. 4: Example of loading hMSC with a gene of interest, studying it biophysically and determining its effect on the heart. Panels A-C study functional expression of If in hMSCs transfected via electroporation with mHCN2 gene. If was expressed in hMSCs transfected with the mHCN2 gene (B) but not in nontransfected stem cells (A). C, Fit by the Boltzmann equation to the normalized tail currents of If gives a midpoint of −91.8+/−0.9 mV and a slope of 8.8+/−0.5 mV (n=9). If was fully activated around −140 mV with an activation threshold of −60 mV. […] Voltage protocol was to hold at −30 mV and hyperpolarize for 1.5 seconds to voltages between −40 and −160 mV in 10-mV increments followed by a 1.5-second voltage step to +20 mV to record the tail currents. Panels D-E show function of hMSCs loaded with HCN2 gene 10 days after injection into canine LV anterior wall in dog in complete heart block. Panels D, placebo experiment, dog injected with saline. […] Panels E, dog injected with approximately 1.2 million hMSCs loaded with HCN2.

[5] = tested on: neonatal and adult rat ventricular myocytes; details: adenoviral expression; cited from earlier work

For “skM1(G1306E): specific mutant of the skeletal muscle sodium channel”, the sodium channels available [1] is listed as “more than 70%”, the inactivation midpoint ([2]; as stated in Example 16 group description) is listed as −55 mV and the activation midpoint ([2]; as worded) is listed as −57 mV. The Slope factor ([2]; steady state inactivation) was −5.2 mV.

For `[Cd+2]` [Cd^2+], the Kd (native SCN5A channel) is listed as “a few hundred”.

In the case of `CC(C)NCC(O)c1ccc(O)c(O)c1` (centres unmarked) [isoproterenol], the “effect on expressed HCN2 current” value (HCN2 induced current) is reported as “has a direct effect on the expressed current”.

For `COc1cc2ncnc(Nc3ccc(F)c(Cl)c3)c2cc1OCCCN1CCOCC1` [Gefitinib], the MMP-7 activity (MMP-7) is listed as “inhibits MMP-7 activity”.

For `O=C(O)CCCc1ccccc1` [4PB, 4-Phenylbutric acid], the connexin up-regulation (Cx43, 40, 45) is listed as “causes up-regulation”, the Cx43 expression (Cx43 [3]) is listed as “up-regulates Cx43” and the Cx43 production elevated (Cx43 [4]) is listed as 2-5 fold.

B1: ERG3: delayed rectifier with steady state window current (protein, UniProt Q9NS40 1-1196, looked up)
Voltage-gated inwardly …: MPVRRGHVAPQNTFLGTIIRKFEGQNKKFIIANARVQNCAIIYCNDGFCEMTGFSRPDVMQKPCTCDFLHGPETKRHDIAQIAQALLGSEERKVEVTYYHKNGSTFICNTHIIPVKNQEGVAMMFIINFEYVTDNENAATPERVNPILPIKTVNRKFFGFKFPGLRVLTYRKQSLPQEDPDVVVIDSSKHSDDSVAMKHFKSPTKESCSPSEADDTKALIQPSKCSPLVNISGPLDHSSPKRQWDRLYPDMLQSSSQLSHSRSRESLCSIRRASSVHDIEGFGVHPKNIFRDRHASEDNGRNVKGPFNHIKSSLLGSTSDSNLNKYSTINKIPQLTLNFSEVKTEKKNSSPPSSDKTIIAPKVKDRTHNVTEKVTQVLSLGADVLPEYKLQTPRINKFTILHYSPFKAVWDWLILLLVIYTAIFTPYSAAFLLNDREEQKRRECGYSCSPLNVVDLIVDIMFIIDILINFRTTYVNQNEEVVSDPAKIAIHYFKGWFLIDMVAAIPFDLLIFGSGSDETTTLIGLLKTARLLRLVRVARKLDRYSEYGAAVLMLLMCIFALIAHWLACIWYAIGNVERPYLTDKIGWLDSLGQQIGKRYNDSDSSSGPSIKDKYVTALYFTFSSLTSVGFGNVSPNTNSEKIFSICVMLIGSLMYASIFGNVSAIIQRLYSGTARYHMQMLRVKEFIRFHQIPNPLRQRLEEYFQHAWTYTNGIDMNMVLKGFPECLQADICLHLNQTLLQNCKAFRGASKGCLRALAMKFKTTHAPPGDTLVHCGDVLTALYFLSRGSIEILKDDIVVAILGKNDIFGEMVHLYAKPGKSNADVRALTYCDLHKIQREDLLEVLDMYPEFSDHFLTNLELTFNLRHESAKADLLRSQSMNDSEGDNCKLRRRKLSFESEGEKENSTNDPEDSADTIRHYQSSKRHFEEKKSRSSSFISSIDDEQKPLFSGIVDSSPGIGKASGLDFEETVPTSGRMHIDKRSHSCKDITDMRSWERENAHPQPEDSSPSALQRAAWGISETESDLTYGEVEQRLDLLQEQLNRLESQMTTDIQTILQLLQKQTTVVPPAYSMVTAGSEYQRPIIQLMRTSQPEASIKTDRSFSPSSQCPEFLDLEKSKLKSKESLSSGVHLNTASEDNLTSLLKQDSDLSLELHLRQRKTYVHPIRHPSLPDSSLSTVGIVGLHRHVSDPGLPGK
With B1 the “potential of maximal steady state conductance” value (Xenopus oocytes) was −50 mV and the “steady state window conductance vs other ERG family members” value (Xenopus oocytes) was “largest steady state conductance”.

B2: mHCN2: pacemaker channel gene (protein, UniProt O88703 1-863, looked up)
Potassium/sodium …: MDARGGGGRPGDSPGTTPAPGPPPPPPPPAPPQPQPPPAPPPNPTTPSHPESADEPGPRARLCSRDSACTPGAAKGGANGECGRGEPQCSPEGPARGPKVSFSCRGAASGPSAAEEAGSEEAGPAGEPRGSQASFLQRQFGALLQPGVNKFSLRMFGSQKAVEREQERVKSAGAWIIHPYSDFRFYWDFTMLLFMVGNLIIIPVGITFFKDETTAPWIVFNVVSDTFFLMDLVLNFRTGIVIEDNTEIILDPEKIKKKYLRTWFVVDFVSSIPVDYIFLIVEKGIDSEVYKTARALRIVRFTKILSLLRLLRLSRLIRYIHQWEEIFHMTYDLASAVMRICNLISMMLLLCHWDGCLQFLVPMLQDFPSDCWVSINNMVNHSWSELYSFALFKAMSHMLCIGYGRQAPESMTDIWLTMLSMIVGATCYAMFIGHATALIQSLDSSRRQYQEKYKQVEQYMSFHKLPADFRQKIHDYYEHRYQGKMFDEDSILGELNGPLREEIVNFNCRKLVASMPLFANADPNFVTAMLTKLKFEVFQPGDYIIREGTIGKKMYFIQHGVVSVLTKGNKEMKLSDGSYFGEICLLTRGRRTASVRADTYCRLYSLSVDNFNEVLEEYPMMRRAFETVAIDRLDRIGKKNSILLHKVQHDLSSGVFNNQENAIIQEIVKYDREMVQQAELGQRVGLFPPPPPPQVTSAIATLQQAVAMSFCPQVARPLVGPLALGSPRLVRRAPPGPLPPAASPGPPAASPPAAPSSPRAPRTSPYGVPGSPATRVGPALPARRLSRASRPLSASQPSLPHGVPAPSPAASARPASSSTPRLGPAPTARTAAPSPDRRDSASPGAASGLDPLDSARSRLSSNL
For B2, the activation threshold (hMSCs) was −60 mV, the “voltage of full activation” value (hMSCs) was “around −140 mV” and the “midpoint of If activation (Boltzmann fit to tail currents)” value (hMSCs; hMSCs transfected via electroporation, n=9) was −91.8+/−0.9 mV. The “slope of If activation” value (hMSCs; n=9) was 8.8+/−0.5 mV and the “voltage dependence of activation, neonatal vs adult myocytes” value [5] was “about 20 mV”.
